Assay results reported in patent US20040047880A1, “Component for vaccine” (priority 2000, published 2004).

Columns and labels:
[1] = tested on: mAb H44/58; test: Phage-ELISA with mAb H44/58; format: binding, mouse; settings: peptide-on-phage
Description: Phages were coated at 5×10^11 particules/ml on MaxiSorp multiwell plates. Coating was performed overnight at 4° C. with 100 μl/well. Plates were saturated with 5% (v/v) skimmed milk in TBS for 2 hours at 37° C. and washed 5 times with TBS-Tween20 0.05% (v/v). The mAbs were then incubated in the coated wells for 1 hour at 37° C., washed 5 times, and GAM-HRP conjugate (1500-fold dilution, Dako, Denmark) was added for 1 hour at 37° C. to detect the binding of the mAb to the phages. After 5 washings, the peroxidase activity was monitored by addition of the K-Blue® substrate (Neogen, Lexington, USA) at room temperature for 20 minutes. Reaction was stopped by addition of 25 μl of 2N H2SO4. Reading was performed at 450-630 nm. Each phage was coated in triplicate for testing with each mAb.

[2] = tested on: mAb H44/58; test: SPOT peptide immunoblot, mAb H44/58; format: binding, mouse; settings: Membrane 2 (cyclic peptides), synthesised with pVIII flanking residues
From the text: Another experiment for determining the best peptide candidates for immunisation trials is whether chemically synthesized peptides are recognized by at least one anti-MenB LOS mAb (and preferably not by irrelevant mAbs). This can be assessed on SPOT synthesized peptides (peptides synthesized directly on a cellulose membrane). This membrane can be tested with different mAbs by repetitive immunoblottings and chemiluminescent detection. Peptides may be synthesised with 3 residues originating from the pVIII protein sequence on each end of the peptide. Indeed, the primary structure of the peptides expressed in fusion with pVIII on the surface of the bacteriophage is as follows (x for any residue in the library):
For example linear peptides comprising peptide No. 61 from Table 2 (GEFPRPHFGAPPDPA) and peptide No. 83 (GEFAERSLWYYPDPA) were synthesised on one membrane, and cyclised peptides comprising peptide No. 50 from Table 2 (GEFCSSYSYVHDSCGDP), peptide 14 (GEFCSHAPPYDRVCGDP) and peptide 25 (GEFCRAPPYDTIMCGDP) were synthesised on another.
The protocol used to probe these membranes with mAbs was the one provided by Genosys, with some modifications, especially for the regeneration of membranes with cyclised peptides. […]

In the case of CRAPPYDTIMC [Peptide 25], the “Phage-ELISA result with mAb H44/58” value [1] is reported as “positive” and the “SPOT recognition by mAb 58 (H44/58)” value [2] is reported as “positive”.
